These results are taken from ChEMBL document CHEMBL5360526, “Discovery of BET specific bromodomain inhibitors with a novel scaffold” (Bioorg Med Chem, 2022).

Structures are written as SMILES.

Data set [1] concerns the target T1, Bromodomain-containing protein 4 (Homo sapiens, UniProt O60885). The experiment in a line: Inhibition of N-terminal GST-tagged/C-terminal 6His-tagged BRD4 BD1 (47 to 170 residues) (unknown origin) expressed in Escherichia coli BL21 (DE3) using SGRGK(Ac)GGK(Ac)GLGK(Ac) GGAK(Ac)RHRK-biotinylated peptide as substrate incubated for 60 mins by alpha screen assay.
Data set [2] concerns the target T1, Bromodomain-containing protein 4. Put plainly: Inhibition of BRD4 BD2 (unknown origin) using SGRGK(Ac)GGK(Ac)GLGK(Ac) GGAK(Ac)RHRK-biotinylated peptide as substrate incubated for 60 mins by alpha screen assay.
Data set [3] is described as follows: Microsomal stability in mouse liver microsomes assessed as parent compound remaining measured after 30 mins. Type of data set: ADME, Microsome. To be noted: read-out: Stability.
Data set [4] concerns the target Bromodomain and WD repeat-containing protein 1 (Homo sapiens) (UniProt Q9NSI6). The experiment in a line: Inhibition of WDR9 BD2 (unknown origin) assessed as remaining activity.
Data set [5] has as its target Bromodomain-containing protein 9 (Homo sapiens) (UniProt Q9H8M2). Put plainly: Inhibition of BRD9 (unknown origin) assessed as remaining activity.
Data set [6] has as its target Chromatin remodeling regulator CECR2 (Homo sapiens) (UniProt Q9BXF3). Put plainly: Inhibition of CECR2 (unknown origin) assessed as remaining activity.
In data set [7] the target is Transcription initiation factor TFIID subunit 1 (Homo sapiens) (UniProt P21675). Put plainly: Inhibition of TAF1 BD2 (unknown origin) assessed as remaining activity.
Data set [8] addresses Bromodomain adjacent to zinc finger domain protein 2A (Homo sapiens) (UniProt Q9UIF9). Put plainly: Inhibition of BAZ2A (unknown origin) assessed as remaining activity.
In data set [9] the target is Histone acetyltransferase KAT2B (Homo sapiens) (UniProt Q92831). Put plainly: Inhibition of PCAF (unknown origin) assessed as remaining activity.
In data set [10] the target is CREB-binding protein (Homo sapiens) (UniProt Q92793). The experiment in a line: Inhibition of CREBBP (unknown origin) assessed as remaining activity.
The target in data set [11] is Bromodomain-containing protein 1 (Homo sapiens) (UniProt O95696). Put plainly: Inhibition of BRD1 (unknown origin) assessed as remaining activity.
Data set [12] concerns the target Transcription initiation factor TFIID subunit 1-like (Homo sapiens) (UniProt Q8IZX4). Put plainly: Inhibition of TAF1L BD2 (unknown origin) assessed as remaining activity.
Data set [13] has as its target Nucleosome-remodeling factor subunit BPTF (Homo sapiens) (UniProt Q12830). The experiment in a line: Inhibition of FALZ (unknown origin) assessed as remaining activity.
Data set [14] concerns the target Bromodomain and PHD finger-containing protein 3 (Homo sapiens) (UniProt Q9ULD4). Put plainly: Inhibition of BRPF3 (unknown origin) assessed as remaining activity.
The next data set has as its target Peregrin (Homo sapiens) (UniProt P55201). Put plainly: Inhibition of BRPF1 (unknown origin) assessed as remaining activity.
Data set [15] deals with Protein polybromo-1 (Homo sapiens) (UniProt Q86U86). The experiment in a line: Inhibition of PBRM1 BD2 (unknown origin) assessed as remaining activity.
Protein polybromo-1 (Homo sapiens), sequence (Q86U86 whole entry): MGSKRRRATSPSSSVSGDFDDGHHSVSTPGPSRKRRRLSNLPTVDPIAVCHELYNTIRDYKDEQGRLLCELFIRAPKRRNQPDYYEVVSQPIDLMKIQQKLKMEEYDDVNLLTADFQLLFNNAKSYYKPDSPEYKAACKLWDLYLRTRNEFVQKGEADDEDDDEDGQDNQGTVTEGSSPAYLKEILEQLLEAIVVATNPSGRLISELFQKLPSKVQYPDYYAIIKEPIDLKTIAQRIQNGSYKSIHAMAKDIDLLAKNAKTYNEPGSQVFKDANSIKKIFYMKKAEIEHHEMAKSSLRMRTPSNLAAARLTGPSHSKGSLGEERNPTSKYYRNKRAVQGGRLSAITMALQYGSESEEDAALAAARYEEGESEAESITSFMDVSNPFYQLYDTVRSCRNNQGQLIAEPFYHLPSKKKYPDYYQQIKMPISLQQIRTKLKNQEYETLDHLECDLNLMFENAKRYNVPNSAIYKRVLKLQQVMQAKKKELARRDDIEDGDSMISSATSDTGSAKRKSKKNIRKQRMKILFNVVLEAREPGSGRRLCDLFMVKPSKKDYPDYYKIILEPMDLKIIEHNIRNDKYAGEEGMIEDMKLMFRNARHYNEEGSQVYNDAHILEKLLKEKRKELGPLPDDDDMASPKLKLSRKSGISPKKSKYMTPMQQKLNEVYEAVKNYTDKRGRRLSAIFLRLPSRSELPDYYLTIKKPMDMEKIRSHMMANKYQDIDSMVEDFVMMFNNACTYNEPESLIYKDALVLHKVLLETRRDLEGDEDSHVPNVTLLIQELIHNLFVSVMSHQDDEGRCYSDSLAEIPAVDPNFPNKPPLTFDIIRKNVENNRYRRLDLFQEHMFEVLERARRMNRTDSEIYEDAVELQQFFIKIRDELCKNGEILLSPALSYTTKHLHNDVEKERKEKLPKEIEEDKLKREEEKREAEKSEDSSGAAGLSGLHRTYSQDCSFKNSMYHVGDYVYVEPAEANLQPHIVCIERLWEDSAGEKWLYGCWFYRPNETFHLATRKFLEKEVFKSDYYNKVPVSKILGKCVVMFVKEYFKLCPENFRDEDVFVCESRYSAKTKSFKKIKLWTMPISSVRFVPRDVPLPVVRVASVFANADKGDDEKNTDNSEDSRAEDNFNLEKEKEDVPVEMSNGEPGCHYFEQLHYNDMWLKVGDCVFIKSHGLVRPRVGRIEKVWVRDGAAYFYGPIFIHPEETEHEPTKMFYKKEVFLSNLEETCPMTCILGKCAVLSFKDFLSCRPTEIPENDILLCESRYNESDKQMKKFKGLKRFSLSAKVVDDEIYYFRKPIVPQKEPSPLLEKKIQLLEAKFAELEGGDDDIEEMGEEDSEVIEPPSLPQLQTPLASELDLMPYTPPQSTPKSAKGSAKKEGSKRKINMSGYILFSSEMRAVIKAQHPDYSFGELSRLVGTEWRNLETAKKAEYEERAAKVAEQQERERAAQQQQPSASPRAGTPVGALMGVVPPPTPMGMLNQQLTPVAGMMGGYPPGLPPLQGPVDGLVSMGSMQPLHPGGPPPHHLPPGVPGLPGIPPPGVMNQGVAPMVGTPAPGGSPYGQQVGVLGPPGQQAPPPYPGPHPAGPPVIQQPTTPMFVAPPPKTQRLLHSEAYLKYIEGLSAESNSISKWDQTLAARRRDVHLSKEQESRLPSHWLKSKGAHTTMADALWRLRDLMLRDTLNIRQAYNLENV
Data set [16] addresses SWI/SNF-related matrix-associated actin-dependent regulator of chromatin subfamily A member 2 (Homo sapiens) (UniProt P51531). Put plainly: Inhibition of SMARCA2 (unknown origin) assessed as remaining activity.
The target of data set [17] is ATPase family AAA domain-containing protein 2 (Homo sapiens) (UniProt Q6PL18). The experiment in a line: Inhibition of ATAD2A (unknown origin) assessed as remaining activity.
Data set [18] has as its target E3 ubiquitin-protein ligase TRIM33 (Homo sapiens) (UniProt Q9UPN9). Put plainly: Inhibition of TRIM33 (unknown origin) assessed as remaining activity.
Data set [19] concerns the target T1, Bromodomain-containing protein 4. The experiment in a line: Inhibition of BRD4 BD2 (unknown origin) assessed as remaining activity.
Data set [20] deals with Bromodomain testis-specific protein (Homo sapiens) (UniProt Q58F21). Put plainly: Inhibition of BRDT BD1 (unknown origin) assessed as remaining activity.
The target in data set [21] is Bromodomain-containing protein 2 (Homo sapiens) (UniProt P25440). The experiment in a line: Inhibition of BRD2 BD1 (unknown origin) assessed as remaining activity.
Bromodomain-containing protein 2 (Homo sapiens), sequence (P25440 whole entry, looked up): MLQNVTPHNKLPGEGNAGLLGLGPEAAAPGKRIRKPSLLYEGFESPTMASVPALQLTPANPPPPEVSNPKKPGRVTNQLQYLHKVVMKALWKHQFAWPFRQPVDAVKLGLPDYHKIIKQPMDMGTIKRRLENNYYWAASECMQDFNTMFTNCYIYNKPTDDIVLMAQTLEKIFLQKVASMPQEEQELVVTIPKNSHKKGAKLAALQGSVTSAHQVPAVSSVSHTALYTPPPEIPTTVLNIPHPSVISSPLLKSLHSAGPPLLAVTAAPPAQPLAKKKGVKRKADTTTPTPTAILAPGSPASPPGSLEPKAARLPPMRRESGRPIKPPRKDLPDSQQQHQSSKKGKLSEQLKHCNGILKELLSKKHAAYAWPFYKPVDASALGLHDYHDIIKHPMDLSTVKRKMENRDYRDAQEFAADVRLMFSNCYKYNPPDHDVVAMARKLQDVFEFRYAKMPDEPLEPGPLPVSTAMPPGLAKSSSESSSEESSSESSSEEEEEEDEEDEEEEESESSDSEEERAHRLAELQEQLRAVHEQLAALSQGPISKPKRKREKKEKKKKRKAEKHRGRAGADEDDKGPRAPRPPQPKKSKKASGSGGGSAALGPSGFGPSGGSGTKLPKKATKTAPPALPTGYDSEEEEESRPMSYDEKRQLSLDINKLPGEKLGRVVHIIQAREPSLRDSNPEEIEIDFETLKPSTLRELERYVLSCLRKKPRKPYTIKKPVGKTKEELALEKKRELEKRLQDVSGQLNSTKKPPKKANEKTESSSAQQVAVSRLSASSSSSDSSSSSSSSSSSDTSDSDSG
Data set [22] has as its target Histone acetyltransferase p300 (Homo sapiens) (UniProt Q09472). Put plainly: Inhibition of EP300 (unknown origin) assessed as remaining activity.
Data set [23] addresses Transcription intermediary factor 1-alpha (Homo sapiens) (UniProt O15164). The experiment in a line: Inhibition of TRIM24 (unknown origin) assessed as remaining activity.
Data set [24] concerns the target SWI/SNF-related matrix-associated actin-dependent regulator of chromatin subfamily A member 4 (Homo sapiens) (UniProt P51532). The experiment in a line: Inhibition of SMARCA4 (unknown origin) assessed as remaining activity.
Data set [25] deals with ATPase family AAA domain-containing protein 2B (Homo sapiens) (UniProt Q9ULI0). Put plainly: Inhibition of ATAD2B (unknown origin) assessed as remaining activity.
ATPase family AAA domain-containing protein 2B (Homo sapiens), sequence (Q9ULI0 whole entry, the tested form may be a part): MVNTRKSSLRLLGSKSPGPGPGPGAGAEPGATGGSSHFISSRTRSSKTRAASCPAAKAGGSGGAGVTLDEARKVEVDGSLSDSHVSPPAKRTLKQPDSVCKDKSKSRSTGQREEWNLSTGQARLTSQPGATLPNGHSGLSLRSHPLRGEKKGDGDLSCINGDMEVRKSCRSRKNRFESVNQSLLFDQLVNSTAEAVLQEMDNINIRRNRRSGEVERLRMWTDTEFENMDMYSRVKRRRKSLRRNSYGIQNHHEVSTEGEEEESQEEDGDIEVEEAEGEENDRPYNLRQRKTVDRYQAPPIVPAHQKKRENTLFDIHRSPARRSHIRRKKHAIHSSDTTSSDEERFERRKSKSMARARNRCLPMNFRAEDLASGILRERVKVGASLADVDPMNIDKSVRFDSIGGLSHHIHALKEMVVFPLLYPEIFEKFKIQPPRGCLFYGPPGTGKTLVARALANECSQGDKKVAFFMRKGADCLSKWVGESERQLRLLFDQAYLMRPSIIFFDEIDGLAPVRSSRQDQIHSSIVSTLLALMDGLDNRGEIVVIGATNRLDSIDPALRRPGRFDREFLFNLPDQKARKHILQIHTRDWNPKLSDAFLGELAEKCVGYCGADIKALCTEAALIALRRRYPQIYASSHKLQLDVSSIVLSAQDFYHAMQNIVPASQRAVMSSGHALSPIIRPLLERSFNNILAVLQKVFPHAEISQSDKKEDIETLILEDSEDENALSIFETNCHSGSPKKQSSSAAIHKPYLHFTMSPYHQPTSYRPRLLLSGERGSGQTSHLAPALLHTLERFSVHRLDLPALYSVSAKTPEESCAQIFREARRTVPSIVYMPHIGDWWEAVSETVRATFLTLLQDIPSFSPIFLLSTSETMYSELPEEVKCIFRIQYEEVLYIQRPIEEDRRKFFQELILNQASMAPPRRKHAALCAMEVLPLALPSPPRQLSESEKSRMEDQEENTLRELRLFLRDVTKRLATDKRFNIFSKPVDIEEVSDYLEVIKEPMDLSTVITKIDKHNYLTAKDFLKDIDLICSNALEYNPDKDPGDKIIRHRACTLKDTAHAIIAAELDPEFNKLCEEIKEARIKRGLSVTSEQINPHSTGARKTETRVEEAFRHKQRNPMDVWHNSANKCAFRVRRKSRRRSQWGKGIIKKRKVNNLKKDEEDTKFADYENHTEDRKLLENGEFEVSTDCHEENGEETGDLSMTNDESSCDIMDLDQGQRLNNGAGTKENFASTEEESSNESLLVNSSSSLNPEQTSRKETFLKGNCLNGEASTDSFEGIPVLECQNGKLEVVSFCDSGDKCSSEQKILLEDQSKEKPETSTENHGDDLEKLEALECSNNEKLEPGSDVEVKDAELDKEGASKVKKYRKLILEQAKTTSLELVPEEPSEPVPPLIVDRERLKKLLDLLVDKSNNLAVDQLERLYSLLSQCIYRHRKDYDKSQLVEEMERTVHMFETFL
Data set [26] addresses Bromodomain testis-specific protein (Homo sapiens) (UniProt Q58F21). Put plainly: Inhibition of BRDT BD2 (unknown origin) assessed as remaining activity.
Data set [27] concerns the target Protein polybromo-1 (Homo sapiens) (UniProt Q86U86). Put plainly: Inhibition of PBRM1 BD5 (unknown origin) assessed as remaining activity.
Data set [28] is described as follows: Microsomal stability in human liver microsomes assessed as parent compound remaining measured after 30 mins. Type of data set: ADME, Microsome. The following applies: read-out: Stability.
Data set [29] addresses Histone acetyltransferase KAT2A (Homo sapiens) (UniProt Q92830). Put plainly: Inhibition of GCN5L2 (unknown origin) assessed as remaining activity.
Data set [30] concerns the target Bromodomain-containing protein 2 (Homo sapiens) (UniProt P25440). The experiment in a line: Inhibition of BRD2 BD2 (unknown origin) assessed as remaining activity.
Data set [31] deals with Bromodomain-containing protein 3 (Homo sapiens) (UniProt Q15059). The experiment in a line: Inhibition of BRD3 BD2 (unknown origin) assessed as remaining activity.
Bromodomain-containing protein 3 (Homo sapiens), sequence (Q15059 2-726 limits assumed): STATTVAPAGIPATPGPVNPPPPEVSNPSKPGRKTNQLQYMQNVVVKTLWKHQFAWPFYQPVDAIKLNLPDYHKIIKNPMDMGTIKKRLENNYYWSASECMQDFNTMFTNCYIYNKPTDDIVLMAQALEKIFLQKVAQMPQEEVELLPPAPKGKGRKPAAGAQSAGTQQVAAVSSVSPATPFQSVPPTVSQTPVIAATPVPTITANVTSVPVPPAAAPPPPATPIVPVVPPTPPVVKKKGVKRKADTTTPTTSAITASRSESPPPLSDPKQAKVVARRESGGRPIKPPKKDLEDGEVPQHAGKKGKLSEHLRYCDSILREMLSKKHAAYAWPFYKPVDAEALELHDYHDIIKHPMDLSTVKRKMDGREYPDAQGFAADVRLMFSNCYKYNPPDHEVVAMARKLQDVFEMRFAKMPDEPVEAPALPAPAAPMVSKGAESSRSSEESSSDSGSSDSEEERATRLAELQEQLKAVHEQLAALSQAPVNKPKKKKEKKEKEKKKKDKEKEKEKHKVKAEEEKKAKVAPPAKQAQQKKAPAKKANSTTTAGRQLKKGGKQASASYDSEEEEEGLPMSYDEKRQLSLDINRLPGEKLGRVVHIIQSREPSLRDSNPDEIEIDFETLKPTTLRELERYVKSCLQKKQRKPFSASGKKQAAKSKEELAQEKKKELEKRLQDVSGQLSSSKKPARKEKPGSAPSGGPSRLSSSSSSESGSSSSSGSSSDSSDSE
For data set [32] the target is unchanged. The experiment in a line: Inhibition of BRD3 BD1 (unknown origin) assessed as remaining activity.
Data set [33] deals with Bromodomain-containing protein 7 (Homo sapiens) (UniProt Q9NPI1). The experiment in a line: Inhibition of BRD7 (unknown origin) assessed as remaining activity.
For data set [34], the target named is Bromodomain adjacent to zinc finger domain protein 2B (Homo sapiens) (UniProt Q9UIF8). Put plainly: Inhibition of BAZ2B (unknown origin) assessed as remaining activity.
The target of data set [35] is T1, Bromodomain-containing protein 4. Put plainly: Inhibition of BRD4 BD1 (unknown origin) assessed as remaining activity.

For `CC(C)Nc1ccc([N+](=O)[O-])c(Nc2ccc3c(c2)nnn3S(=O)(=O)c2ccc(F)cc2)n1`, the IC50 in data set [1] came out at 3.87 µM; in data set [2], 6.17 µM.
For `CC(C)Nc1ccc(NS(=O)(=O)c2cccnc2)c(Nc2ccc3[nH]nnc3c2)n1` the same measures were 0.83 µM and 0.8 µM.
For `CC(C)Nc1ccc(NS(=O)(=O)N(C)C)c(Nc2ccc3[nH]nnc3c2)n1` the same measures were 1.69 µM and 2.05 µM.
Consider `CCCS(=O)(=O)Nc1ccc(NC(C)C)nc1Nc1ccc2[nH]nnc2c1`, for which the IC50 in data set [1] is 3.23 µM; in data set [2], 3.02 µM.
In the same order, the values of `CN(C)S(=O)(=O)Nc1ccc(N2C3CCC2COC3)nc1Nc1ccc2[nH]nnc2c1` are 4.45 µM and 4.38 µM.
For the compound `CN(C)S(=O)(=O)Nc1ccc(NC2COC2)nc1Nc1ccc2[nH]nnc2c1`, the concentration for half-maximal inhibition (IC50) in [1] amounted to 6.85 µM; in data set [2] it was 9.95 µM.
For `COCC(C)Nc1ccc(NS(=O)(=O)N(C)C)c(Nc2ccc3[nH]nnc3c2)n1` (configuration not stated), the remaining at 0.5 h is 28% in [3] and 32.9% in data set [28]. Also, the Activity is 44% in [4]; 64% in [5]; 73% in data set [6]; 31% in data set [7]; 82% in [8]; 88% in data set [9]. Further, the Activity came out at 88% in [10]; 42% in [11]; 86% in data set [12]; 77% in data set [13]; 71% in data set [14]; 78% on Peregrin (Homo sapiens). Moreover, the Activity in data set [15] stood at 44%; in data set [16], 62%; in [17] it was 66%; in [18], 92%; in data set [19], 22%; in [20] it was 2.7%. The Activity turned out to be 0% in data set [21]; 82% in data set [22]; 98% in [23]; 75% in [24]; 55% in [25]; 32% in [26]. The Activity in data set [27] was found to be 73%; in data set [29] it was 88%; in data set [30], 19%; in data set [31], 35%; in data set [32] it was 0.95%; in [33], 67%. The Activity in data set [34] turned out to be 84%; in data set [35] it was 0.45%. Moreover, the IC50 in [1] was 2.86 µM; in data set [2] it was 8.01 µM.
For `CN(C)S(=O)(=O)Nc1ccc(N2CCOCC2)nc1Nc1ccc2[nH]nnc2c1`, the IC50 in data set [1] stood at 4.6 µM; in [2], 5.82 µM.
In the same order, the values of `CC(C)Nc1ccc(NS(=O)(=O)c2cccs2)c(Nc2ccc3[nH]nnc3c2)n1` are 0.77 µM and 0.78 µM.
For the compound `C[C@H](Nc1ccc(NS(=O)(=O)N(C)C)c(Nc2ccc3[nH]nnc3c2)n1)[C@@H](c1ccccc1)N(C)C`, the IC50 in [1] came to 3.22 µM; in [2], 6.9 µM.
For `CC(C)Nc1ccc(NS(=O)(=O)c2c(F)cc(F)cc2F)c(Nc2ccc3[nH]nnc3c2)n1` the same measures were 0.62 µM and 0.9 µM.
For `CC(C)Nc1ccc(NS(C)(=O)=O)c(Nc2ccc3[nH]nnc3c2)n1` the same measures were 2.47 µM and 2.86 µM.
For `CN(C)S(=O)(=O)Nc1ccc(NCC(O)c2ccccc2)nc1Nc1ccc2[nH]nnc2c1` (configuration not stated) the same measures were 5.59 µM and 5.11 µM.
For the compound `CC(C)Nc1ccc(NS(=O)(=O)c2ccc(F)cc2)c(Nc2ccc3[nH]nnc3c2)n1`, the IC50 in data set [1] is 0.24 µM; in data set [2], 0.3 µM.
For the compound `CN(C)S(=O)(=O)Nc1ccc(NCCCN2CCOCC2)nc1Nc1ccc2[nH]nnc2c1`, the IC50 in data set [1] was found to be 5.41 µM; in data set [2], 15 µM.
For `CC(C)Nc1ccc([N+](=O)[O-])c(Nc2ccc3[nH]nnc3c2)n1` the same measures were 9.8 µM and 10 µM.
In the same order, the values of `CC(C)Nc1ccc(NS(=O)(=O)c2ccccc2C(F)(F)F)c(Nc2ccc3[nH]nnc3c2)n1` are 1.61 µM and 1.57 µM.
For `CC(C)Nc1ccc(NS(=O)(=O)C(C)C)c(Nc2ccc3[nH]nnc3c2)n1` the same measures were 1.12 µM and 1.24 µM.
Take `CC(C)Nc1ccc(NC(=O)Nc2ccccc2)c(Nc2ccc3[nH]nnc3c2)n1`: the half-inhibitory concentration (IC50) in [1] is 6.89 µM; in data set [2], 10.2 µM.
